Experimental data taken from patent US10590056B2, “ERR modulators and uses thereof” (CITY OF HOPE, priority 2017, dated 2020).

Columns and labels:
[1] = target: T1, Human ERα (Homo sapiens, UniProt P03372); test: Full-length ERα, estrogen receptor responsive reporter assay in CV-1 cells; assay type: cell-based; details: selectivity evaluation
T1 construct: Human ERα and ERβ were examined as full-length proteins using an estrogen receptor responsive reporter construct; expressed in transfected cells; host or cells: CV-1 cells, cytomegalovirus-driven expression vectors
T1 sequence (P03372 1-595): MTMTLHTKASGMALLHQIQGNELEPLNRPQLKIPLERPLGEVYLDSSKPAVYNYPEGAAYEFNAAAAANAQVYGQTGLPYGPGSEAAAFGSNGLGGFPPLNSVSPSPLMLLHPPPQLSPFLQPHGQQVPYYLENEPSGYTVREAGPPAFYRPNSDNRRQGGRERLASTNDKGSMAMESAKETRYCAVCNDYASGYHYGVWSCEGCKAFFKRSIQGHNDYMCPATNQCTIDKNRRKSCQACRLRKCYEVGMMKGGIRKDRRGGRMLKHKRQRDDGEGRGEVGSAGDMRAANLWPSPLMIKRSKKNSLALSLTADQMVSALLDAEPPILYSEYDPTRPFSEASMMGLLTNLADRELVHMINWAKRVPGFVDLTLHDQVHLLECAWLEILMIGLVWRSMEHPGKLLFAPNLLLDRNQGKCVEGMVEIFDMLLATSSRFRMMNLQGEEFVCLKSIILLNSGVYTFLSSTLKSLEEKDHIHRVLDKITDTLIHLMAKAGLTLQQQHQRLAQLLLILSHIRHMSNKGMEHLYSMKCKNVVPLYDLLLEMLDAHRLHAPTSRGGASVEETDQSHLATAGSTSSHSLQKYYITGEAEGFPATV
Protocol: Cell based transactivation assays were performed in CV-1 cells as described.^49 ERR activity was assayed with a GAL4 reporter construct and fusion proteins containing the ligand binding domains of human ERRα, human ERRβ and mouse ERRγ linked to the DNA binding domain of yeast GAL4. Human ERα and ERβ were examined as full-length proteins using an estrogen receptor responsive reporter construct. Reporter constructs (300 ng/10^5 cells) and cytomegalovirus-driven expression vectors (20-50 ng/10^5 cells) were added as indicated along with CMX-β-gal (500 ng/10^5 cells) as an internal control. Cells were transiently transfected by Lipofectamine as described.^56 Cells were incubated with DNA complexed liposomes for 2 hours and subsequently treated for approximately 45 hr with phenol red free DMEM FBS containing the indicated compounds. After exposure to ligand, the cells were harvested and assayed for luciferase and β-galactosidase activity. All points were assayed in triplicate and varied by less than 15%. Each experiment was repeated three or more times with similar results. Fold activation is reported.

[2] = system: ERRγ target gene SHP (NR0B2); test: Endogenous SHP (NR0B2) expression by real-time PCR in 293 HEK cells expressing ERRγ via adenovirus; assay type: cell-based, human; details: 293HEK over-expressing ERRγ, 100 nM, 48 hours
Protocol: (§1) FIGS. 7A-7C. […] FIG. 7A. 293 HEK cells expressing either GFP or ERRγ via adenoviral transduction were treated with either vehicle (DMSO) or 100 nM DY40 for 48 hours. Expression of endogenous SHP (NR0B2) was quantitated by real-time PCR. Values are normalized to β-actin transcript and reported relative to GFP untreated levels (=1.0). Data represent mean±S.E.M. for 3 independent trials. FIG. 7B. C2C12 myotubes were treated with either vehicle or 100 nM DY40 for 48 hours. Expression of endogenous SHP was measured by quantitative real-time PCR. Values are normalized to 36b4 (Rp1p0) transcript and reported relative to expression in DMSO treated cells (=1.0). Data represent mean±S.E.M. for 3 independent trials. *, P<0.05 DMSO versus DY40 treated values. FIG. 7C. C2C12 myotubes were treated with either vehicle or 100 nM DY40 for 48 hours. Oxidation of ^3H-palmitate-BSA was measured as described in Methods. Values are normalized to total cellular protein and reported relative to expression in DMSO treated cells (=1.0). […]
(§2) Validation of DY40 effects on endogenous ERRγ target gene expression and metabolism in cell based models. […] We also evaluated the effects of the compound in C2C12 myotubes that have significant endogenous ERRγ expression. […]
(§3) Experimental transcript levels were normalized to 36B4 ribosomal RNA analyzed in separate reactions. […]

[3] = system: ERRγ target gene SHP; test: Endogenous SHP transcript by real-time PCR in C2C12 myotubes; assay type: cell-based, mouse; details: 100 nM, 48 hours, vs DMSO
Protocol: as §1, §2, §3

[4] = system: C2C12 myotubes; test: Fatty acid oxidation assay (3H-palmitate-BSA) in C2C12 myotubes; assay type: cell-based; details: 100 nM, 48 hours, compared to vehicle-treated controls
Protocol: as §1, with “Methods.” for “Methods. Values are normalized to total cellular protein and reported relative to expression in DMSO treated cells (=1.0).”
The analysis of fatty acid oxidation rates in cells was performed as previously described.^57 Fatty acid ^3H-[9,10]-palimitic acid was complexed to fatty acid-free BSA and this complex was added to 30 uM unlabeled palmitate. […] The substrate was removed and radiolabeled aqueous metabolites (^3H2O) released to the media were measured by scintillation counting. The calculated rates were normalized to total cellular protein.

## CC(=O)Oc1ccc(/C(=C(/c2ccccc2)C(C)C)c2ccc(OCCN(C)C)cc2)cc1 [Compound 4a, (E)-4-{1-[4-(2-dimethylamino-ethoxy)-phenyl]-3-methyl-2-phenyl-but-1-enyl}-phenyl acetate]
[1]
  ERα antagonist activity, in words: remains an antagonist potency of ERα
[2]
  ERRγ mediated induction of SHP transcript: completely blocked
[3]
  repression of endogenous SHP transcript levels: ~60%
[4]
  change in palmitate oxidation rates: −42%
